From patent US8273344B2, “Recombinant adeno-associated virus expressing human antisense gene CyP2J2 and its preparation methods” (priority 2004, dated 2012)
Where “and” joins values, the source holds several entries; their conditions need not be identical. Identical values can stand only once.

Key:
tumor = assay: Growth of tumor under EET blocker (FIG. 16); details: FIG. 16, 100 nmol/L
[1] = test system: four different kinds of tumor cell lines; assay: TNFα-induced apoptosis of tumor cells (DNA ladder, acridine orange staining, flow cytometry); assay type: cell-based, human; details: for total apoptotic rate: flow cytometry; for number of apoptotic cells (acridine orange / ethidium bromide staining): fluorescent microscope, vs control group
Description: A week later, TNFα is used to induce the apoptosis of tumor cells. The apoptosis is measured using different methods. […] Thus, the EETs and epoxygenase gene resist the apoptosis of cancer cells induced by TNF-α. After PI staining and Annexin V-FITC/PI dobule staining separatively, the total apoptosis rate and early apoptosis rate of cells are calculated using flow cytometry.

Akt, Bcl-2, Bcl-xL, Bax = assay type: cell-based
[2] = test system: Tca-8113, A549, Ncl-H446, and HepG2 cell lines; assay: Migration and invasion of tumor cells in modified Boyden chamber; assay type: cell-based, human; details: 5 h, P<0.01
Description: The migration of epithelial cells in the modified Boyden chamber is measured using a conventional method. A polycarbonate filter membrane of […] is coated at 4° C. for 24 h using collagen IV (10 μg/mL) and Matrigel (11 μg/filter). The Tca-8113, A549, Ncl-H446, and HepG2 cell lines are washed with DMEM culture solution to 2×10^6/mL. 200 μL of DMEM containing 5% FBS is added to the low part of the Boyden chamber as a chemoattractant, and followed by covering a polycarbonate filter membrane. 800 μL of a cell suspension is added to the upper part of the Boyden chamber, cultured at 37° C. at 5% CO2 for 5 h. The device is disassembled and the membrane is collected. The cells are cleaned off, and the membrane is fixed with carbinol and stained with hematoxylin. Five fields of vision per membrane are observed under a 200× microscope. Subsequently, the number of migrating cells is calculated.

transplantation tumor = assay: Growth of transplantation tumor under epoxygenase inhibitor (FIG. 17); assay type: in vivo; details: FIG. 17, without joint use of 5-fluorouracil
four tumor cell lines = assay: Proliferation of four kinds of tumor cells in vitro; assay type: cell-based, human; details: FIG. 15, dose dependence
Excerpt: The epoxygenase metabolizes arachidonic acid to yield endogenous epoxyeicosatrienoic acids. Thus, the EETs concentration is increased indirectly. This can directly verity that the function of CYP epoxygenase for promoting proliferation of tumor cells.

[3] = EET pretreatment experiment, control 28.15%±4.7

## CCCCCC1OC1C/C=C\C/C=C\C/C=C\CCCC(=O)O (centres unmarked) [14, 15-EET]
tumor
  growth of tumor: can inhibit

## epoxyeicosatrienoic acids [EETs]
[1]; [3]
  total apoptotic rate: 14.94%±3.5 and 11.72%±4.2 and 12.89%±2.7
[1]; TNFα-induced apoptosis
  formation of DNA ladder: decrease significantly
[1]
  number of apoptotic cells (acridine orange / ethidium bromide staining): significantly less
Akt, Bcl-2, Bcl-xL, Bax
  expression of antiapoptosis protein Bcl-2 and Bcl-xL: increase
  expression of apoptosis protein Bax: decrease
  phosphorylation of Akt: promote

## C#CCCCCCCCCCCCCCCCC(=O)O [17-ODYA]
[2]
  ability of migrating of cells relative to basal state: about 60 % of basal state
Transplantation tumor
  growth of transplantation tumor: can inhibit
[1]; [3]
  total apoptotic rate: 52.65%±3.6
[1]
  number of apoptotic cells (acridine orange / ethidium bromide staining): large
[1]; induced by TNF-α
  apoptosis of tumor cells (in words): promotes significantly
[1]; transfection experiment, control 20.15%±3.5
  total apoptotic rate: 33.51%±6.1
Four tumor cell lines
  growth of tumor cells: dose-dependently inhibits
Akt, Bcl-2, Bcl-xL, Bax
  expression of antiapoptosis protein Bcl-2 and Bcl-xL: completely opposite effect
  expression of apoptosis protein Bax: completely opposite effect
  phosphorylation of Akt: completely opposite effect
